These results are taken from patent publication US20230295234A1, “ANTIMICROBIAL PEPTIDOMIMETICS” (SPEXIS AG, priority 2020, published 2023).

Read-outs that look alike come from different tables or passages of the source. Bridge positions count the residues as written; N and C are the ends. Square brackets hold non-standard residues; d marks the D form. Peptide text beside a SMILES is read from it. Pro(4R-NH2) = N[C@H]1CN[C@H](C(=O)O)C1; Gly(N-2-aminoethyl) = NCCNCC(=O)O; Gly(N(CH2)3NH2) = NCCCNCC(=O)O; Pen = CC(C)(S)[C@H](N)C(=O)O; dDab = NCC[C@@H](N)C(=O)O; Nle = CCCC[C@H](N)C(=O)O; Dab = NCC[C@H](N)C(=O)O

Data set [1] relates to Klebsiella pneumoniae SSI3010. The following applies: SSI3010. Put shortly: (§1)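 Activity is measured against peptides serially diluted two-fold in water with 0.002% final Polysorbate 80. The cells are in cation-adjusted MHII broth at roughly 5×10^5 CFU/mL, prepared from a 0.5 McFarland suspension in 0.85% NaCl.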
Data set [2] deals with Escherichia coli ATCC 25922. The conditions noted are these: ATCC 25922. Put shortly:
as §1

The test system of data set [3] is Escherichia coli MCR-1 Af 45. The gist of the method:
as §1

Data set [4] has as its system human red blood cells (hRBC). The experiment in a line: Hemolysis of human red blood cells. Type of data set: cell-based. The following applies: red cells of human, 1 h. The gist of the method:
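PBS-washed human red blood cells (20% v/v) were incubated with peptide at 200 μg/mL for 1 h at 37 °C with shaking. Supernatant OD was read at 540 nm after 8-fold dilution. Hemolysis is expressed as percent of the water control.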

[5] abbreviates: Mueller-Hinton broth II, 18-20 hours at 35° C.

As for `CCCC[C@H](NC(=O)[C@H](CCCNC(=N)N)NC(=O)[C@H](CCN)NC(=O)[C@@H]1CSSC(C)(C)[C@H](NC(=O)[C@H](Cc2ccc(O)cc2)NC(=O)[C@@H](NC(=O)[C@@H](NC(=O)CN(CCCN)C(=O)[C@@H](NC(=O)CNCCCN)C(C)C)[C@@H](C)CC)[C@@H](C)CC)C(=O)N[C@@H](CC(N)=O)C(=O)N[C@@H](CCCNC(=N)N)C(=O)N[C@@H](CCN)C(=O)N[C@@H]([C@@H](C)O)C(=O)N[C@H](CCN)C(=O)N[C@@H](CCCCN)C(=O)N1)C(=O)O` [Example 14, Norn-Val-Norn-Ile-Ile-Tyr-Pen-Asn-Arg-Dab-Thr-^DDab-Lys-Cys-Dab-Arg-Nle] (H-[Gly(N(CH2)3NH2)]V[Gly(N(CH2)3NH2)]IIY[Pen]NR[Dab]T[dDab]KC[Dab]R[Nle]-OH; disulfide 7-14), in data set [1], the “Klebsiella pneumoniae SSI3010 MIC” value is on record as 0.25 mg/L. Further, the “Escherichia coli ATCC 25922 MIC” value in data set [2] came to 0.25 mg/L. Also, in data set [3] (MCR-1 Af 45), the “Escherichia coli MCR-1 Af 45 MIC” value is reported as 0.25 mg/L. The “Hemolysis at 0.2 g/L” value in data set [4] worked out at 0%.

For the compound `CC[C@H](C)[C@H](NC(=O)[C@@H]1C[C@@H](O)CN1C(=O)[C@@H](N)C(C)C)C(=O)N[C@@H](CCN)C(=O)N[C@@H](Cc1ccc(O)cc1)C(=O)N[C@@H]1C(=O)N[C@@H](CC(N)=O)C(=O)N[C@@H](CCCNC(=N)N)C(=O)N[C@@H](CCN)C(=O)N[C@@H]([C@@H](C)O)C(=O)N[C@H](CCN)C(=O)N[C@@H](CCCCN)C(=O)N[C@H](C(=O)N[C@@H](CCN)C(=O)N[C@H](C(=O)N[C@@H](Cc2ccc(O)cc2)C(=O)O)[C@@H](C)O)CSSC1(C)C` [Example 153] (HELM PEPTIDE1{V.[Hyp].I.[Dab].Y.[Pen].N.R.[Dab].T.[NCC[C@@H](N[*:1])C(=O)[*:2]].K.C.[Dab].T.Y}$PEPTIDE1,PEPTIDE1,6:R3-13:R3$$$V2.0), the “Klebsiella pneumoniae SSI3010 MIC” value in data set [1] was found to be 0.5 mg/L. Further, the “Escherichia coli ATCC 25922 MIC” value in data set [2] was 0.125 mg/L. For the same compound, the “Escherichia coli MCR-1 Af 45 MIC” value in data set [3] (setting [5]) was determined as 0.5 mg/L. For the same compound, the “Hemolysis at 0.2 g/L” value in data set [4] is recorded as 0%.

Regarding `CC[C@H](C)[C@H](NC(=O)[C@@H](NC(=O)[C@@H]1CCCN1C(=O)[C@@H](NC(=O)[C@@H]1C[C@@H](N)CN1C(=O)[C@H](CCCCN)NC(=O)[C@@H](N)CCCCN)C(C)C)[C@@H](C)CC)C(=O)N[C@@H](Cc1ccc(O)cc1)C(=O)N[C@H]1CCNC(=O)CC[C@@H](C(=O)N[C@@H](CCN)C(=O)N[C@@H](CCCNC(=N)N)C(=O)N[C@@H](Cc2ccc(O)cc2)C(=O)O)NC(=O)[C@H](CCCCN)NC(=O)[C@@H](CCN)NC(=O)[C@H]([C@@H](C)O)NC(=O)[C@H](CCN)NC(=O)[C@H](CCCNC(=N)N)NC(=O)[C@H](CC(N)=O)NC1=O` [Example 131, Lys-Lys-Pro((4R)NH2)-Val-Pro-Ile-Ile-Tyr-Dab-Asn-Arg-Dab-Thr-^DDab-Lys-Glu-Dab-Arg-Tyr] (HELM PEPTIDE1{K.K.[N[C@@H]1C[C@@H](C(=O)[*:2])N([*:1])C1].V.P.I.I.Y.[Dab].N.R.[Dab].T.[NCC[C@@H](N[*:1])C(=O)[*:2]].K.E.[Dab].R.Y}$PEPTIDE1,PEPTIDE1,9:R3-16:R3$$$V2.0), the “Klebsiella pneumoniae SSI3010 MIC” value in data set [1] is 0.25 mg/L. In addition, in data set [2], the “Escherichia coli ATCC 25922 MIC” value is given as 0.125 mg/L. In data set [3] (MCR-1 Af 45), the “Escherichia coli MCR-1 Af 45 MIC” value stood at 0.125 mg/L. Further, the “Hemolysis at 0.2 g/L” value in data set [4] is 0%.

On to `CC[C@H](C)[C@H](NC(=O)[C@@H]1C[C@@H](O)CN1C(=O)[C@@H](NC(=N)N)C(C)C)C(=O)N[C@H](C(=O)N[C@@H](Cc1ccc(O)cc1)C(=O)N[C@@H]1C(=O)N[C@@H](CC(N)=O)C(=O)N[C@@H](CCCNC(=N)N)C(=O)N[C@@H](CCN)C(=O)N[C@@H]([C@@H](C)O)C(=O)N[C@H](CCN)C(=O)N[C@@H](CCCCN)C(=O)N[C@H](C(=O)N[C@@H](CCN)C(=O)N[C@@H](CCCNC(=N)N)C(=O)N[C@@H](Cc2ccc(O)cc2)C(=O)O)CSSC1(C)C)[C@@H](C)O` [Example 188] (HELM PEPTIDE1{[CC(C)[C@H](NC(=N)N)C(=O)[*:2]].[Hyp].I.T.Y.[Pen].N.R.[Dab].T.[NCC[C@@H](N[*:1])C(=O)[*:2]].K.C.[Dab].R.Y}$PEPTIDE1,PEPTIDE1,6:R3-13:R3$$$V2.0), for which the “Klebsiella pneumoniae SSI3010 MIC” value in data set [1] is recorded as 0.25 mg/L. Besides, the “Escherichia coli ATCC 25922 MIC” value in data set [2] turned out to be 0.125 mg/L. Besides, the “Escherichia coli MCR-1 Af 45 MIC” value in data set [3] (setting [5]) is given as at most 0.125 mg/L. Besides, the “Hemolysis at 0.2 g/L” value in data set [4] is listed as 0%.

Take `CCCC[C@H](NC(=O)[C@H](CCCNC(=N)N)NC(=O)[C@H](CCN)NC(=O)[C@@H]1CSSC(C)(C)[C@H](NC(=O)[C@H](Cc2ccc(O)cc2)NC(=O)[C@@H](NC(=O)[C@@H](NC(=O)[C@@H]2C[C@@H](N)CN2C(=O)[C@@H](N)C(C)C)[C@@H](C)CC)[C@@H](C)O)C(=O)N[C@@H](CC(N)=O)C(=O)N[C@@H](CCCNC(=N)N)C(=O)N[C@@H](CCN)C(=O)N[C@@H]([C@@H](C)O)C(=O)N[C@H](CCN)C(=O)N[C@@H](CCCCN)C(=O)N1)C(=O)O` [Example 138] (HELM PEPTIDE1{V.[N[C@@H]1C[C@@H](C(=O)[*:2])N([*:1])C1].I.T.Y.[Pen].N.R.[Dab].T.[NCC[C@@H](N[*:1])C(=O)[*:2]].K.C.[Dab].R.[Nle]}$PEPTIDE1,PEPTIDE1,6:R3-13:R3$$$V2.0): in data set [1], the “Klebsiella pneumoniae SSI3010 MIC” value amounted to 0.25 mg/L. For the same compound, the “Escherichia coli ATCC 25922 MIC” value in data set [2] turned out to be 0.125 mg/L. In addition, the “Escherichia coli MCR-1 Af 45 MIC” value in data set [3] (setting [5]) was determined as 0.0625 mg/L. Besides, the “Hemolysis at 0.2 g/L” value in data set [4] is reported as 0%.

In the case of `CC[C@H](C)[C@H](NC(=O)[C@@H]1C[C@@H](O)CN1C(=O)[C@@H](N)C(C)C)C(=O)N[C@H](C(=O)N[C@@H](Cc1ccc(O)cc1)C(=O)N[C@@H]1C(=O)N[C@@H](CC(N)=O)C(=O)N[C@@H](CCCNC(=N)N)C(=O)N[C@@H](CCN)C(=O)N[C@@H]([C@@H](C)O)C(=O)N[C@H](CCN)C(=O)N[C@@H](CCCCN)C(=O)N[C@H](C(=O)N[C@@H](CCN)C(=O)N[C@@H](CCCCN)C(=O)N[C@@H](Cc2ccc(O)cc2)C(=O)O)CSSC1(C)C)[C@@H](C)O` [Example 178] (HELM PEPTIDE1{V.[Hyp].I.T.Y.[Pen].N.R.[Dab].T.[NCC[C@@H](N[*:1])C(=O)[*:2]].K.C.[Dab].K.Y}$PEPTIDE1,PEPTIDE1,6:R3-13:R3$$$V2.0), the “Klebsiella pneumoniae SSI3010 MIC” value in data set [1] is listed as 0.5 mg/L. The “Escherichia coli ATCC 25922 MIC” value in data set [2] is listed as 0.25 mg/L. Also, the “Escherichia coli MCR-1 Af 45 MIC” value in data set [3] (setting [5]) is 0.125 mg/L. The “Hemolysis at 0.2 g/L” value in data set [4] was determined as 0%.

As to `CC[C@H](C)[C@H](NC(=O)[C@@H]1CCCN1C(=O)[C@@H](N)C(C)C)C(=O)N[C@@H](Cc1ccccc1)C(=O)N[C@@H](Cc1ccc(O)cc1)C(=O)N[C@H]1CSSC[C@@H](C(=O)N[C@@H](CCN)C(=O)N[C@@H](CCCNC(=N)N)C(=O)N[C@@H](Cc2ccc(O)cc2)C(=O)O)NC(=O)[C@H](CCCCN)NC(=O)[C@@H](CCN)NC(=O)[C@H]([C@@H](C)O)NC(=O)[C@H](CCN)NC(=O)[C@H](CCCNC(=N)N)NC(=O)[C@H](CC(N)=O)NC1=O` [Example 145] (HELM PEPTIDE1{V.P.I.F.Y.C.N.R.[Dab].T.[NCC[C@@H](N[*:1])C(=O)[*:2]].K.C.[Dab].R.Y}$PEPTIDE1,PEPTIDE1,6:R3-13:R3$$$V2.0), the “Klebsiella pneumoniae SSI3010 MIC” value in data set [1] was 0.125 mg/L. In addition, in data set [2], the “Escherichia coli ATCC 25922 MIC” value is given as 0.0625 mg/L. Moreover, the “Escherichia coli MCR-1 Af 45 MIC” value in data set [3] (setting [5]) is given as 0.0625 mg/L. For the same compound, in data set [4], the “Hemolysis at 0.2 g/L” value was 0%.

Take `CC[C@H](C)[C@H](NC(=O)[C@@H]1C[C@@H](O)CN1C(=O)[C@@H](N)C(C)C)C(=O)N[C@H](C(=O)N[C@@H](Cc1ccc(O)cc1)C(=O)N[C@@H]1C(=O)N[C@@H](CC(N)=O)C(=O)N[C@@H](CCCNC(=N)N)C(=O)N[C@@H](CCN)C(=O)N[C@@H]([C@@H](C)O)C(=O)N[C@H](CCN)C(=O)N[C@@H](CCCNC(N)=O)C(=O)N[C@H](C(=O)N[C@@H](CCN)C(=O)N[C@@H](CCCNC(=N)N)C(=O)N[C@@H](Cc2ccc(O)cc2)C(=O)O)CSSC1(C)C)[C@@H](C)O` [Example 180] (HELM PEPTIDE1{V.[Hyp].I.T.Y.[Pen].N.R.[Dab].T.[NCC[C@@H](N[*:1])C(=O)[*:2]].[Cit].C.[Dab].R.Y}$PEPTIDE1,PEPTIDE1,6:R3-13:R3$$$V2.0): the “Klebsiella pneumoniae SSI3010 MIC” value in data set [1] is given as 0.5 mg/L. Also, the “Escherichia coli ATCC 25922 MIC” value in data set [2] amounted to 0.25 mg/L. Also, in data set [3] (setting [5]), the “Escherichia coli MCR-1 Af 45 MIC” value stood at 0.25 mg/L. Further, the “Hemolysis at 0.2 g/L” value in data set [4] came out at 1%.

Take `CCCC[C@H](NC(=O)[C@H](CCCNC(=N)N)NC(=O)[C@H](CCN)NC(=O)[C@@H]1CSSC(C)(C)[C@H](NC(=O)[C@H](Cc2ccc(O)cc2)NC(=O)[C@@H](NC(=O)[C@@H](NC(=O)CN(CCN)C(=O)[C@@H](NC(=O)[C@@H]2C[C@@H](N)CN2)C(C)C)[C@@H](C)CC)[C@@H](C)CC)C(=O)N[C@@H](CC(N)=O)C(=O)N[C@@H](CCCNC(=N)N)C(=O)N[C@@H](CCN)C(=O)N[C@@H]([C@@H](C)O)C(=O)N[C@H](CCN)C(=O)N[C@@H](CCCCN)C(=O)N1)C(=O)O` [Example 10, Pro((4R)NH2)-Val-Ndab-Ile-Ile-Tyr-Pen-Asn-Arg-Dab-Thr-^DDab-Lys-Cys-Dab-Arg-Nle] (H-[Pro(4R-NH2)]V[Gly(N-2-aminoethyl)]IIY[Pen]NR[Dab]T[dDab]KC[Dab]R[Nle]-OH; disulfide 7-14): the “Klebsiella pneumoniae SSI3010 MIC” value in data set [1] stood at 0.25 mg/L. The “Escherichia coli ATCC 25922 MIC” value in data set [2] is 0.125 mg/L. Further, the “Escherichia coli MCR-1 Af 45 MIC” value in data set [3] (MCR-1 Af 45) is on record as 0.125 mg/L. For the same compound, the “Hemolysis at 0.2 g/L” value in data set [4] is on record as 0%.
